Measured values: ChEMBL document CHEMBL1201862, “PubChem BioAssay data set” (2004)
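Results reflect a 48-hour exposure of cells in 96-well plates to compound at five concentrations. At the GI50, growth is halved.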 The source made the active and inactive calls. Cut-off read from the data, not from the text of the source: active = GI50 up to about 1.1 µM and inactive = higher.

How the values were obtained:
Assay in all cases: NCI tumour cell line growth inhibition, 48 h
A549 = test system: A549
HCT-116 = test system: HCT-116
HOP-62 = test system: HOP-62
MDA-MB-231 = test system: MDA-MB-231
MDA-MB-435 = test system: MDA-MB-435
MOLT-4 = test system: MOLT-4
NCI-H226 = test system: NCI-H226
NCI-H23 = test system: NCI-H23
OVCAR-3 = test system: OVCAR-3
OVCAR-5 = test system: OVCAR-5
OVCAR-8 = test system: OVCAR-8
SF-268 = test system: SF-268
SF-295 = test system: SF-295
SK-MEL-5 = test system: SK-MEL-5
SK-OV-3 = test system: SK-OV-3
SN12C = test system: SN12C
TK-10 = test system: TK-10
UACC-257 = test system: UACC-257
UO-31 = test system: UO-31
RPMI-8226 = test system: RPMI-8226

Measured: GI50

C=C(C)CC1(O)C(=O)C(OCC)=C1OCC (stereo not given)
inactive: A549 > 100 µM | HCT-116 > 100 µM | HOP-62 > 100 µM | MDA-MB-231 > 100 µM | MDA-MB-435 > 100 µM | MOLT-4 > 100 µM | NCI-H226 > 100 µM | NCI-H23 > 100 µM | OVCAR-3 > 100 µM | OVCAR-5 > 100 µM | OVCAR-8 > 100 µM | SF-268 > 100 µM | SF-295 > 100 µM | SK-MEL-5 > 100 µM | SK-OV-3 > 100 µM | SN12C > 100 µM | TK-10 > 100 µM | UACC-257 > 100 µM | UO-31 > 100 µM

OC1CC(O)c2c(Cl)sc(Cl)c21 (stereo not given)
inactive: A549 11.7 µM | HCT-116 31.4 µM | HOP-62 21.2 µM | MDA-MB-231 32.1 µM | MDA-MB-435 32 µM | MOLT-4 51.5 µM | NCI-H226 26.3 µM | NCI-H23 21.2 µM | OVCAR-3 14.8 µM | OVCAR-5 28.8 µM | OVCAR-8 41.5 µM | SF-268 > 100 µM | SF-295 8.41 µM | SK-MEL-5 47 µM | SK-OV-3 27.4 µM | SN12C 46.3 µM | TK-10 36 µM | UACC-257 24.8 µM | UO-31 28.2 µM

CCOc1ncn(-c2ccc(NC(=S)NC3OC(CO)C(O)C(O)C3O)cc2)n1 (stereo not given)
inactive: A549 > 100 µM | HCT-116 > 100 µM | HOP-62 > 100 µM | MDA-MB-231 > 100 µM | MDA-MB-435 > 100 µM | MOLT-4 > 100 µM | NCI-H23 > 100 µM | OVCAR-3 > 100 µM | OVCAR-5 > 100 µM | OVCAR-8 > 100 µM | RPMI-8226 > 100 µM | SF-268 > 100 µM | SF-295 > 100 µM | SK-MEL-5 > 100 µM | SK-OV-3 > 100 µM | SN12C > 100 µM | TK-10 > 100 µM | UACC-257 > 100 µM | UO-31 > 100 µM

NC1C2C(CC(=O)O)OCC=C3CN4CCC1(C(=O)C(=O)O)C4CC32 (stereo not given)
inactive: A549 > 100 µM | HCT-116 > 100 µM | HOP-62 > 100 µM | MDA-MB-231 > 100 µM | MDA-MB-435 > 100 µM | MOLT-4 > 100 µM | NCI-H226 > 100 µM | NCI-H23 > 100 µM | OVCAR-3 > 100 µM | OVCAR-5 > 100 µM | OVCAR-8 > 100 µM | SF-268 > 100 µM | SF-295 > 100 µM | SK-MEL-5 > 100 µM | SK-OV-3 > 100 µM | SN12C > 100 µM | TK-10 > 100 µM | UACC-257 > 100 µM | UO-31 > 100 µM

COc1cc(OC)c(OC)cc1/C=C1\C=Cc2ccccc21
inactive: A549 26.5 µM | HCT-116 5.65 µM | HOP-62 15.9 µM | MDA-MB-231 12.6 µM | MDA-MB-435 5.32 µM | MOLT-4 6.31 µM | NCI-H226 26.9 µM | NCI-H23 18.8 µM | OVCAR-5 12.5 µM | OVCAR-8 31.7 µM | RPMI-8226 10.8 µM | SF-268 17.1 µM | SF-295 18.5 µM | SK-MEL-5 11.1 µM | SK-OV-3 19.7 µM | SN12C 18.8 µM | TK-10 17.3 µM | UACC-257 16.3 µM | UO-31 16.3 µM

OC(c1ccc(C(F)(F)F)cc1)C(F)(F)c1nc2ccccc2o1 (stereo not given)
inactive: HCT-116 > 100 µM | HOP-62 > 100 µM | MDA-MB-231 > 100 µM | MDA-MB-435 > 100 µM | MOLT-4 > 100 µM | NCI-H226 > 100 µM | NCI-H23 > 100 µM | OVCAR-8 > 100 µM | RPMI-8226 > 100 µM | SF-268 > 100 µM | SF-295 > 100 µM | SK-MEL-5 > 100 µM | SK-OV-3 > 100 µM | TK-10 > 100 µM | UACC-257 > 100 µM | UO-31 > 100 µM

CC(=O)CC1=C(OC(C)C)C2(OCCO2)C1O (stereo not given)
inactive: A549 > 100 µM | HCT-116 > 100 µM | HOP-62 > 100 µM | MDA-MB-231 > 100 µM | MDA-MB-435 > 100 µM | MOLT-4 > 100 µM | NCI-H226 > 100 µM | NCI-H23 > 100 µM | OVCAR-3 > 100 µM | OVCAR-5 > 100 µM | OVCAR-8 > 100 µM | SF-268 > 100 µM | SF-295 > 100 µM | SK-MEL-5 > 100 µM | SK-OV-3 > 100 µM | SN12C > 100 µM | TK-10 > 100 µM | UACC-257 > 100 µM | UO-31 > 100 µM

O=c1[nH]c(=O)n(C/C=C/CBr)nc1Br
inactive: A549 15.8 µM | HCT-116 13 µM | HOP-62 21.9 µM | MDA-MB-231 3.49 µM | MDA-MB-435 13.6 µM | MOLT-4 16 µM | NCI-H226 13.9 µM | NCI-H23 12.6 µM | OVCAR-3 11.6 µM | OVCAR-5 16.9 µM | OVCAR-8 14.5 µM | RPMI-8226 4.08 µM | SF-268 14.1 µM | SF-295 17.2 µM | SK-MEL-5 13.2 µM | SN12C 14.8 µM | TK-10 17.7 µM | UACC-257 12.3 µM | UO-31 18.5 µM

O=C(OCc1ccccc1)N1CCNCCNCC1
inactive: A549 > 100 µM | HCT-116 > 100 µM | HOP-62 > 100 µM | MDA-MB-231 > 100 µM | MDA-MB-435 > 100 µM | MOLT-4 > 100 µM | NCI-H226 > 100 µM | NCI-H23 > 100 µM | OVCAR-3 > 100 µM | OVCAR-5 > 100 µM | OVCAR-8 > 100 µM | RPMI-8226 > 100 µM | SF-268 > 100 µM | SF-295 > 100 µM | SK-MEL-5 > 100 µM | SN12C > 100 µM | TK-10 > 100 µM | UACC-257 > 100 µM | UO-31 > 100 µM

COc1ccc(/C=C2\C=Cc3ccccc32)cc1OC
inactive: A549 > 100 µM | HCT-116 91.2 µM | HOP-62 > 100 µM | MDA-MB-231 78.3 µM | MDA-MB-435 > 100 µM | MOLT-4 38.6 µM | NCI-H226 28.4 µM | NCI-H23 24 µM | OVCAR-3 > 100 µM | OVCAR-5 > 100 µM | OVCAR-8 > 100 µM | SF-268 > 100 µM | SF-295 > 100 µM | SK-MEL-5 43.2 µM | SK-OV-3 76.2 µM | SN12C 60 µM | TK-10 > 100 µM | UACC-257 > 100 µM

O=C(NCCN1CCCCC1)c1ccc(Br)cc1
inactive: A549 > 100 µM | HCT-116 > 100 µM | HOP-62 > 100 µM | MDA-MB-231 > 100 µM | MDA-MB-435 > 100 µM | MOLT-4 > 100 µM | NCI-H23 > 100 µM | OVCAR-3 > 100 µM | OVCAR-5 > 100 µM | OVCAR-8 > 100 µM | RPMI-8226 > 100 µM | SF-268 > 100 µM | SF-295 > 100 µM | SK-MEL-5 > 100 µM | SK-OV-3 > 100 µM | SN12C > 100 µM | TK-10 > 100 µM | UACC-257 > 100 µM | UO-31 > 100 µM
